The source of these data is patent US5061708A, “Therapeutic guanine esters” (priority 1987, dated 1991).

SMILES strings stand for the structures. Where a name gives a salt, the structure may show the parent alone.

Data set [1] has as its system Herpes Simplex Virus (HSV 1). Description: HSV 1 plaque reduction assay in monolayers of Vero cells. The class given is cell-based. To be noted: HSV 1, Vero cells, 50% inhibitory concentration. The method, then:
Herpes Simplex Virus (HSV 1) was assayed in monolayers of Vero cells in multiwell trays. Activity of compounds was determined in the plaque reduction assay, in which a cell monolayer was infected with a suspension of HSV 1, and then overlaid with nutrient agarose in the form of a gel to ensure that there was no spread of virus throughout the culture. A range of concentrations of compound of known molarity was incorporated in the nutrient agarose overlay. Plaque numbers at each concentration were expressed as percentages of the control and a dose-response curve was drawn. From this curve the 50% inhibitory concentration (IC50) was estimated.

The conditions of data set [2]: in words; cited from earlier work.
Data set [3] concerns herpes viruses. Conditions: particularly against herpes viruses, in words; cited from earlier work.

A word on the IC50: it is the point on the concentration scale where inhibition reaches its midpoint. A higher IC50 goes with lower potency. `Nc1nc2c(ncn2COCCO)c(=O)[nH]1` [Acyclovir, 9-(2-Hydroxyethoxymethyl)guanine] returned an IC50 in data set [1] of 0.08 to 0.1 µM. Moreover, the “absorption from the gastrointestinal tract after oral administration” value in data set [2] was “only poorly absorbed”. Moreover, in data set [3], the antiviral activity entry is on record as “potent antiviral activity”.

Compound `CC[C@H](C)[C@H](N)C(=O)OCCOCn1cnc2c(=O)[nH]c(N)nc21` [Example 1, 2-(2-Amino-1,6-dihydro-6-oxo-9H(purin-9-yl)methoxy)ethyl L-isoleucinate hydrochloride] came in with an IC50 in data set [1] of 3.8 µM.
